Assay results reported in US20090030086A1, “ANTIMICROBIAL AGENTS” (priority 2005, published 2009).

Tests used:
Experiment in all cases: Disc diffusion assay (DDA)
Type in all cases: cell-based
P. granulosum PRP-055 = settings: resistance None, 200 μg per disc
Method: (§1) The Propionibacterium spp organisms were cultured and maintained on Wilkins-Chalgren Anaerobe Medium (agar and broth) at pH 6.0; cultures were incubated anaerobically at 37° C. for 72 hours.
(§2) A sterile paper disc was impregnated with a sample of the test compound and a minimum of 30 minutes allowed for the solvents to evaporate as far as possible. The disc was then placed on an agar plate onto which the test micro-organism had been inoculated. The plate was then incubated under the conditions described above, following which it was examined visually for signs of bacterial growth. If the test compound had antimicrobial activity, a circular zone of no growth would be obtained around the disc. The diameter of this zone of “inhibition” was measured using a ProtoCOL™ automated zone sizer (Synbiosis, Cambridge, UK). In general, a greater diameter and/or area of the zone of inhibition indicates a greater antimicrobial activity in the relevant test compound, although other factors such as test compound mobility through the agar gel may also influence the result.
(§3) The area of the zone of inhibition was calculated from the measured zone diameter (D) using the formula π(D/2)^2.
(§4) For the DDA assays, 200 μg of TBHQ was loaded onto each disc. The solvent used for the TBHQ was ethanol.

P. granulosum PRP-043 = settings: resistance MLS, 200 μg per disc
Method: as §1, §2, §3, §4

P. granulosum PPR-006 = settings: resistance MLS, 200 μg per disc
Method: as §1, §2, §3, §4

P. granulosum PRP-005 = settings: resistance MLSK, 200 μg per disc
Method: as §1, §2, §3, §4

CC(C)(C)c1cc(O)ccc1O [TBHQ, 2-t-butyl hydroquinone]
DDA (P. granulosum PRP-055): 13.07 mm | DDA (P. granulosum PRP-043): 10.56 mm | DDA (P. granulosum PPR-006): 20.00 mm | DDA (P. granulosum PRP-005): 0.00 mm
